Experimental data taken from patent US20100099118A1, “METHODS OF DETERMINING TOTAL PON1 LEVEL” (priority 2007, published 2010).
Where “and” joins values, the source holds several entries; their conditions need not be identical. Identical values can stand only once.

Columns and labels:
serum PON1 [1] = test: Arylesterase activity in sera (phenyl acetate); type: biochemical; conditions: 54 human sera
Description: (§1) Phenyl acetate and paraoxonase activities were measured in 50 mM Tris pH 8.0 with 1 mM CaCl2. All activities were measured with 1 mM substrate, and expressed in Units/ml for phenyl acetate (1 μmol of phenyl acetate hydrolyzed per min per 1 ml undiluted serum) or mUnits/ml for other activities (1 nmol of substrate hydrolyzed per min per 1 ml undiluted serum). Horizontal bars represent the mean value for each group.
(§2) Paraoxonase and aryl esterase activity in sera: Paraoxonase activity in sera samples was measured in activity buffer with 1 mM paraoxon by monitoring the absorbance at 405 nm in a final volume of 200 μl (ε=10,515 OD/M). Arylesterase activity was measured in activity buffer with 1 mM phenyl acetate by monitoring the absorbance at 270 nm in a final volume of 200 μL (ε=7000D/M).

PON1 = conditions: from Gaidukov et al. 2006; cited from earlier work
serum PON1 [2] = test: Paraoxonase activity in sera; type: biochemical; conditions: 54 human sera
Description: as §1, §2

serum PON1 [3] = test: Lactonase activity in sera measured with TBBL; type: biochemical, human; conditions: for TBBL lactonase activity: 0.25 mM TBBL, mean and S.D.
Description: (§3) Lactonase Activity in Sera: Human sera were kindly provided by Michael Aviram. The samples were collected from 54 healthy individuals at Rambam Medical Center (Haifa, Israel) with the approval of the institute's Helsinki committee. Phenotyping sera for the PON1-192R/Q polymorphism was performed by a two-substrate method [Eckerson, H. W., et al., Am J Hum Genet. 35: 1126-1138] as previously described [Gaidukov, L., M. Rosenblat, M. Aviram, and D. S. Tawfik. 2006. J Lipid Res 47: 2492-2502]. Sera were divided into aliquots, supplemented with β-mercaptoethanol (5 mM) to prevent oxidation, and stored frozen at −20° C. All assays were performed in 96-well plates (Nunc), using an automated microplate reader (Bio-Tek; optical length ˜0.5 cm). Lactonase activity was measured in activity buffer (50 mM Tris pH 8.0, 1 mM CaCl2) containing 0.25 mM of 5-thiobutyl butyrolactone (TBBL) [Gaidukov, L., et al., 2006 J Lipid Res 47: 2492-2502] and 0.5 mM 5,5′-dithio-bis-2-nitrobenzoic acid (DTNB) by monitoring the absorbance at 412 nm in a final volume of 200 μl (ε=7,000 OD/M). The serum was diluted 400-fold in 100 μl of activity buffer complemented with 1 mM DTNB. DTNB was used from 100 mM stock in DMSO. TBBL was used from 250 mM stock in acetonitrile. TBBL was diluted 500-fold in activity buffer containing 2% acetonitrile. The reaction was initiated by adding 100 μl of TBBL (0.5 mM) to 100 μl of sera dilution. The final sera dilution was 800-fold. All the reaction mixtures contained a final 1% acetonitrile. Rates of spontaneous hydrolysis of TBBL in buffer were subtracted from all the measurements. Activities were expressed as U/ml (1 unit=1 μmol of TBBL hydrolyzed per minute per 1 ml of undiluted serum).

serum PON1 [4] = target: T1, serum PON1 (Homo sapiens, UniProt P27169, Q192R); test: Lactonase activity in sera measured with TBBL; type: biochemical; conditions: RR sera (n = 6); 0.25 mM TBBL; mean and S.D.
T1 construct: The samples were collected from 54 healthy individuals at Rambam Medical Center; from tissue; host or cells: human serum from 54 healthy individuals
Description: as §3

serum PON1 [5] = target: T2, serum PON1 (Homo sapiens, UniProt P27169); test: Lactonase activity in sera measured with TBBL; type: biochemical; conditions: QQ sera (n = 34); 0.25 mM TBBL; mean and S.D.
T2 construct: The samples were collected from 54 healthy individuals at Rambam Medical Center; from tissue; host or cells: human serum from 54 healthy individuals
Description: as §3

[6] = target: purified human PON1 polymorphs (Homo sapiens, UniProt P27169); test: Specific activity of purified human PON1 polymorphs for TBBL in absence of HDL; type: biochemical; conditions: 0.25 mM TBBL, same for both polymorphs
[7] = 50 mM Tris pH 8.0, 1 mM substrate

T2 sequence (P27169 2-355): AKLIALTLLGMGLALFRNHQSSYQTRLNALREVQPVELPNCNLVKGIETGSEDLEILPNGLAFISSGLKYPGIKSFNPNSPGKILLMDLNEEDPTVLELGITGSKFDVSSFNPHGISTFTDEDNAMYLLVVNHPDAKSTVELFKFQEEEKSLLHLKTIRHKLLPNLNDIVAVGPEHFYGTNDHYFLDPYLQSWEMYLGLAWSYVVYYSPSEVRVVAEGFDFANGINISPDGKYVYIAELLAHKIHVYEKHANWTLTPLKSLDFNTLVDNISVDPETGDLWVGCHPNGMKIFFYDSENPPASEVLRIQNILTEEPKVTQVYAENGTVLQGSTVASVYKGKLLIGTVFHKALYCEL
T1 sequence (P27169 2-355 Q192R): as the sequence (P27169 2-355) above, with Q191R counted along it
Sequence of purified human PON1 polymorphs (P27169 2-355): as the sequence (P27169 2-355) above

SMILES: CC(=O)Oc1ccccc1 [Phenyl acetate]
- Mean ± S.D. of activity (serum PON1 [1]; [7]): 48.2 ± 20.9 Units activity
- Range of activity (serum PON1 [1]; [7]): 15.6-100.6 Units activity
- Variation of activity between sera (fold, in brackets under range) (serum PON1 [1]): (6) fold
- Stimulation upon HDL binding (PON1): ca. 2 fold

SMILES: CCOP(=O)(OCC)Oc1ccc([N+](=O)[O-])cc1 [Paraoxon]
- Mean ± S.D. of activity (serum PON1 [2]; [7]): 49.5 ± 36.6 Units activity
- Range of activity (serum PON1 [2]; [7]): 7.7-173.5 Units activity
- Variation of activity between sera (fold, in brackets under range) (serum PON1 [2]): (23) fold

SMILES: CCCCSC1CCC(=O)O1 (centres unmarked) [TBBL, 5-thiobutyl butyrolactone]
- Variation of TBBLase activity between sera (serum PON1 [3]; 54 human sera): 7 fold
- TBBL lactonase activity (serum PON1 [3]; All sera (n = 54), μmol hydrolyzed per min per 1 ml undiluted serum): 3.8 ± 1.9 Units/ml
- TBBL lactonase activity (serum PON1 [3]; RQ sera (n = 14)): 4.1 ± 2.1 Units/ml
- Mean lactonase activity in RR sera relative to QQ sera (serum PON1 [3]; RR vs QQ sera): 1.5 fold
- TBBL lactonase activity (serum PON1 [4]): 5.4 Units/ml and 5.4 ± 2.7 Units/ml
- TBBL lactonase activity (serum PON1 [5]): 3.5 Units/ml and 3.5 ± 1.6 Units/ml
- Specific activity for TBBL [6]: 1.0±0.1 μmol/min/mg of protein
